Results from US5118685A, “Aminopropanol derivatives of substituted 2-hydroxy-propiophenones, and therapeutic agents containing these compounds” (BASF Aktiengesellschaft, priority 1983, dated 1992).

How the values were obtained:
[1] = tested on: aconitine-induced arrythmia in the dog; experiment: Antiarrhythmic action on aconitine-induced arrythmia in the dog (oral administration); type: in vivo, dog (male or female mongrel dogs); settings: for change in vivo at 10 mg/kg: Canis lupus familiaris, po, 1 h, read-out: Prolongation of aconitin infusion period; for prolongation of time before arrhythmias appeared, relative to that obtained with propafenone and diprafenone (times greater): dog, 10 mg/kg, oral
Experimental: Male or female mongrel dogs weighing 12-15 kg were used. The substances to be tested were administered orally, 40 minutes after induction of anesthesia using Na pentobarbital (30 mg/kg i.v.). Cardiac arrhythmias were induced by infusion of aconitine (5 μg per kg per min), the infusion beginning 60 minutes after administration of the substance. In the ECG of untreated animals, arrhythmias (loss or inversion of P, ventricular tachyarrhythmias) occurred after an average infusion time of 6.4±0.29 min.
When the substances according to the invention were administered in a dose of 10 mg/kg, the time which elapsed before arrhythmias appeared was prolonged. […]; the antiarrhythmic activity is higher (Table 1).

in vivo = settings: mouse, ip, single administration i.p., female NMRI mice, approximate values
[2] = tested on: arrhythmias after infarct in the conscious dog; experiment: Antiarrhythmic action on arrhythmias after infarct (coronary ligature) in the conscious dog; type: in vivo, dog (male and female beagle dogs); settings: for inhibition of arrhythmias compared with propafenone and diprafenone (in words) / Increase in normal heart actions: oral
Experimental: The substances were also tested with regard to their action on arrhythmias after coronary ligature. This method permits conclusions to be drawn as to the action on arrhythmias after infarct in man. Male and female beagle dogs weighing 9-15 kg were used. The ramus descendens of the left coronary artery was ligatured by a modified method of Harris (Circulation, 1, 1318-1328, 1950). Tachycardic, usually ventricular arrhythmias of various origins resulted which were detectable on the ECG, with P loss QRS deformation and T wave elevation. The measure for determining antiarrhythmic action was the frequency (%) of normal heart actions ascertained during a 100-minute control period at 5-minute intervals. Hearbeats had to be at most 29% of the normal during this control period before a substance was administered. After administration, the ECG was run, as in the control period, for 100 minutes at 5-minute intervals, and then for a further 200 minutes at 10-minute intervals.

SMILES | change in vivo at 10 mg/kg [1] [%] | LD50 (in vivo) [mg/kg] | prolongation of time before arrhythmias appeared, relative to that obtained with propafenone and diprafenone (times greater) [1] | inhibition of arrhythmias compared with propafenone and diprafenone (in words) [2] | Increase in normal heart actions ([2]; dose 10.0 mg/kg) [%] | oral dosage rate giving inhibition of arrhythmias as great as propafenone (times less) ([2]; relative to propafenone) | Increase in normal heart actions ([2]; dose 21.5 mg/kg) [%]
CC(C)NCC(O)COc1ccccc1C(=O)CCc1cccn1C (centres unmarked) [Example 3] | 85 | 68.1 | – | – | – | – | –
CCCNCC(O)COc1ccccc1C(=O)CCc1cccn1C (centres unmarked) [Example 4] | 70 | 46.4 | twice | – | – | – | –
CC(C)N(CC(O)COc1ccccc1C(=O)CCc1cccn1C)C(C)C (centres unmarked) [Example 5] | 85 | 68.1 | – | more active than propafenone and diprafenone at the same rate | 66 | – | –
CC(C)NCC(O)COc1ccccc1C(=O)CCc1ccn(C)c1 (centres unmarked) [Example 7] | 193 | 46.4 | six times | more active than propafenone and diprafenone at the same rate | 92 | – | –
CCCNCC(O)COc1ccccc1C(=O)CCc1cnn(C)c1 (centres unmarked) [Example 9] | 154 | 31.6 | – | inhibited arrhythmias to just as great an extent as propafenone, and to a far greater extent than diprafenone | – | about 5 times less | –
CCC(C)(C)NCC(O)COc1ccccc1C(=O)CCc1cnn(C)c1 (centres unmarked) [Example 12] | 137 | 68.1 | – | – | – | – | –
CCC(C)(C)NCC(O)COc1ccccc1C(=O)CCc1ccccc1 (centres unmarked) [diprafenone, 2-[2-hydroxy-3-(1,1-dimethylpropylamino)-propoxy]-ω-phenylpropiophenone, reference compound] | 33 | 68.1 | – | – | – | – | 43
